Read-outs that look alike come from different tables or passages of the source.
Assays:
[1] = tested on: Magnaporthe grisea (Pyricularia oryzae—PYRIOR); test: microbe, parasite or virus in culture; assay type: cell-based; conditions: Pyricularia oryzae, read-out: PYRIOR in vitro Growth Inhibition
[2] = tested on: Rhizoctonia solani (RHIZSO); test: microbe, parasite or virus in culture; assay type: cell-based; conditions: Rhizoctonia solani, read-out: RHIZSO in vitro Growth Inhibition
[3] = tested on: Mycosphaerella graminicola (Septoria tritici—SEPTTR); test: In vitro fungal growth inhibition, Mycosphaerella graminicola (SEPTTR); assay type: cell-based; conditions: Zymoseptoria tritici, read-out: SEPTTR in vitro Growth Inhibition
[4] = tested on: Stagonospora nodorum (Leptosphaeria nodorum—LEPTNO); test: In vitro fungal growth inhibition, Stagonospora nodorum (LEPTNO); assay type: cell-based; conditions: Leptosphaeria, read-out: LEPTNO in vitro Growth Inhibition
Ustilago maydis (USTIMA) = test: microbe, parasite or virus in culture; assay type: cell-based; conditions: Mycosarcoma maydis, read-out: USTIMA in vitro Growth Inhibition
[5] = tested on: Phytophthora infestans (PHYTIN); test: microbe, parasite or virus in culture; assay type: cell-based; conditions: Phytophthora infestans, read-out: PHYTIN in vitro Growth Inhibition
[6] = tested on: Phytophthora infestans—PHYTIN; test: whole plant or invertebrate; assay type: in vivo; conditions: for pest or weed control at 100 ppm: Phytophthora, in Solanum lycopersicum, 24 h, read-out: PHYTIN in vivo 1 Day Protectant
[7] = tested on: Puccinia recondita—PUCCRT; test: Brown Rust of Wheat, in vivo whole plant, 24 Hour Protectant; conditions: for pest or weed control at 100 ppm: Puccinia, read-out: PUCCRT in vivo 1 Day Protectant
Erysiphe graminis—ERYSGT = test: Powdery Mildew of Wheat, in vivo whole plant, 24 Hour Protectant; conditions: Erysiphe, read-out: ERYSGT in vivo 1 Day Protectant
Septoria tritici—SEPTTR = test: Leaf Blotch of Wheat, in vivo whole plant, 24 Hour Protectant; conditions: Zymoseptoria tritici, 24 h, read-out: SEPTTR in vivo 1 Day Protectant
[8] = tested on: Leptosphaeria nodorum—LEPTNO; test: Glume Blotch of Wheat, in vivo whole plant, 24 Hour Protectant; conditions: for pest or weed control at 100 ppm: Leptosphaeria, read-out: LEPTNO in vivo 1 Day Protectant
[9] = 100 ppm spray, wheat, 24 hour protectant, control of fungal infection vs untreated plants
[10] = wheat plants sprayed at 100 ppm, inoculated after 24 hours, control of fungal infection vs untreated plants
[11] = 100 ppm spray, 24 hour protectant, wheat, control of fungal infection vs untreated plants

Row | SMILES | inhibition at 25 ppm [1] [%] | inhibition at 25 ppm [2] [%] | inhibition at 25 ppm ([3]; 25 ppm in growth medium) [%] | inhibition at 25 ppm ([4]; 25 ppm in growth medium) [%] | inhibition at 25 ppm (Ustilago maydis (USTIMA)) [%] | inhibition at 25 ppm [5] [%] | pest or weed control at 100 ppm [6] [%] | melting point | inhibition at 25 ppm ([3]; 25 ppm in the growth medium) [%] | inhibition at 25 ppm ([4]; 25 ppm in the growth medium) [%] | pest or weed control at 100 ppm [7, 10] [%] | pest or weed control at 100 ppm (Erysiphe graminis—ERYSGT; [10]) [%] | pest or weed control at 100 ppm (Septoria tritici—SEPTTR; [10]) [%] | pest or weed control at 100 ppm [8, 10] [%] | also measured
1 | COc1ccnc(C(=O)Nc2ccc(C(=O)Oc3cccc(C(F)(F)F)c3)cc2)c1O [Compound 451] | > 80 | < 80 | < 80 | < 80 | < 80 | < 80 | < 25 | 196 °C (dec.) | – | – | – | – | – | – | pest or weed control at 100 ppm [7, 9]: 25 to 74%; pest or weed control at 100 ppm (Erysiphe graminis—ERYSGT; [9]): < 25%; pest or weed control at 100 ppm (Septoria tritici—SEPTTR; [9]): < 25%; pest or weed control at 100 ppm [8, 9]: 25 to 74%
2 | CC(C)(C)C1CCC(NC(=O)c2cnccc2O)CC1 (stereo not drawn) [Compound 504] | < 80 | < 80 | – | – | < 80 | < 80 | < 25 | 70 to 78 °C | < 80 | > 80 | < 25 | < 25 | < 25 | 25 to 74 | –
3 | CC(C)C(=O)O[C@H]1[C@H](C)OC(=O)[C@@H](NC(=O)c2cncnc2O)COC(=O)[C@@H]1Cc1ccccc1 [Compound 540] | < 80 | < 80 | – | – | < 80 | < 80 | < 25 | 195 °C (dec.) | < 80 | < 80 | < 25 | < 25 | 25 to 74 | < 25 | –
4 | Cc1nc(O)c(C(=O)N[C@H]2COC(=O)[C@H](Cc3ccccc3)[C@@H](OC(=O)C(C)C)[C@H](C)OC2=O)cc1Cl [Compound 531] | < 80 | < 80 | – | – | < 80 | < 80 | < 25 | 103 to 108 °C | < 80 | < 80 | < 25 | 25 to 74 | 25 to 74 | 25 to 74 | –
5 | COc1ccnc(C(=O)N[C@H]2CC(=O)OCC(NC(=O)OC(C)(C)C)COC2=O)c1O (stereo partly drawn) [Compound 379] | < 80 | < 80 | < 80 | < 80 | < 80 | < 80 | < 25 | 118 to 121 °C | – | – | – | – | – | – | pest or weed control at 100 ppm [7, 9]: 25 to 74%; pest or weed control at 100 ppm (Erysiphe graminis—ERYSGT; [9]): 25 to 74%; pest or weed control at 100 ppm (Septoria tritici—SEPTTR; [9]): 25 to 74%; pest or weed control at 100 ppm [8, 9]: 25 to 74%
6 | COc1ccnc(C(=O)NC2CCN(Cc3ccccc3)CC2)c1O.O=C(O)/C=C\C(=O)O [Compound 305] | < 80 | < 80 | – | – | < 80 | < 80 | – | 145 to 147 °C | – | – | – | – | – | – | inhibition at 25 ppm [3]: < 80%; inhibition at 25 ppm [4]: < 80%; PHYTIN in vivo 1 Day Protectant ([6]; 100 ppm spray, 24 hour protectant, tomato, control of fungal infection vs untreated plants): + +; pest or weed control at 100 ppm ([7]; 24 h): < 25%; pest or weed control at 100 ppm (Erysiphe graminis—ERYSGT; 24 h): < 25%; pest or weed control at 100 ppm (Septoria tritici—SEPTTR): < 25%; pest or weed control at 100 ppm ([8]; 24 h): < 25%
7 | COc1ccnc(C(=O)Nc2cccc(Oc3ccc(C(F)(F)F)cc3)n2)c1O [Compound 469] | > 80 | < 80 | – | – | < 80 | < 80 | < 25 | 149 to 151 °C | < 80 | > 80 | – | < 25 | 25 to 74 | 25 to 74 | PUCCRT in vivo 1 Day Protectant [7, 10]: + +
8 | CC1(C)CC(NC(=O)c2nc3ccccc3nc2O)CC(C)(C)C1 [Compound 563] | < 80 | < 80 | – | – | < 80 | < 80 | < 25 | > 300 °C | < 80 | < 80 | < 25 | < 25 | < 25 | 25 to 74 | –
9 | COc1ccnc(C(=O)Nc2ccc(Cc3cccc(C(F)(F)F)c3)cc2)c1O [Compound 404] | < 80 | < 80 | < 80 | < 80 | > 80 | < 80 | < 25 | 126 to 127 °C | – | – | – | – | – | – | pest or weed control at 100 ppm [7, 9]: 25 to 74%; pest or weed control at 100 ppm (Erysiphe graminis—ERYSGT; [9]): 25 to 74%; pest or weed control at 100 ppm (Septoria tritici—SEPTTR; [9]): 25 to 74%; pest or weed control at 100 ppm [8, 9]: 25 to 74%
10 | COc1ccnc(C(=O)N[C@H]2COC(=O)[C@H](Cc3ccccc3)[C@@H](OC(=O)C(C)(C)C)[C@H](C)OC2=O)c1O [Compound 388] | < 80 | < 80 | > 80 | > 80 | < 80 | < 80 | < 25 | 212 to 214 °C | – | – | – | – | – | – | pest or weed control at 100 ppm [7, 9]: 25 to 74%; pest or weed control at 100 ppm (Erysiphe graminis—ERYSGT; [9]): < 25%; pest or weed control at 100 ppm (Septoria tritici—SEPTTR; [9]): 25 to 74%; LEPTNO in vivo 1 Day Protectant [8, 9]: + +
11 | Cn1cc(C(=O)NC2CC(C)(C)CC(C)(C)C2)c(O)n1 [Compound 557] | < 80 | < 80 | – | – | < 80 | > 80 | < 25 | 205 to 208 °C | < 80 | < 80 | 25 to 74 | < 25 | 25 to 74 | 25 to 74 | –
12 | COc1ccnc(C(=O)Nc2ccc(Oc3cc(C(F)(F)F)cc(C(F)(F)F)n3)cc2)c1O [Compound 464] | < 80 | < 80 | – | – | < 80 | < 80 | < 25 | 179 to 181 °C | < 80 | < 80 | < 25 | < 25 | 25 to 74 | 25 to 74 | –
13 | CC(C)C(=O)O[C@H]1[C@H](C)OC(=O)[C@@H](NC(=O)c2nc(Cl)c(Cl)nc2O)COC(=O)[C@@H]1Cc1ccccc1 [Compound 538] | < 80 | < 80 | – | – | < 80 | < 80 | < 25 | 108 to 110 °C | < 80 | < 80 | 25 to 74 | < 25 | 25 to 74 | 25 to 74 | –
14 | O=C(Nc1cccc(Cl)c1)c1ncccc1O [Compound 212] | > 80 | < 80 | < 80 | < 80 | < 80 | < 80 | < 25 | 131 to 132 °C | – | – | – | – | – | – | pest or weed control at 100 ppm [7, 11]: < 25%; pest or weed control at 100 ppm (Erysiphe graminis—ERYSGT; [11]): < 25%; pest or weed control at 100 ppm (Septoria tritici—SEPTTR; [11]): < 25%; pest or weed control at 100 ppm [8, 11]: < 25%
